Laboratory results as given in ChEMBL document CHEMBL1123738, “Kinetics of solvolysis and muscarinic actions of an N-methyl-N-(2-bromoethyl)amino analogue of oxotremorine” (J Med Chem, 1987).

What was measured:
[1] = Half-life of compound at 22 degree Celsius and pH 7.29 was determined; assay type: ADME
[2] = Half-life of compound at 22 degree Centigrade and pH 7.67 was determined; assay type: ADME
[3] = Rate of cyclization of compound at 22 degree Centigrade and pH 6.25; assay type: ADME
[4] = Equipotent potent ratio relative to carbachol (nicotinic activity); assay type: ADME
[5] = Half-life of compound at 22 degree Celsius and pH 4.24 was determined; assay type: ADME
[6] = First-order rate constant for cyclization of the free base; assay type: ADME
[7] = Half-life of compound at 22 degree Celsius and pH 5.46 was determined; assay type: ADME
[8] = Rate of cyclization of compound at 22 degree Celsius and pH 7.67; assay type: ADME
[9] = Rate of cyclization of compound at 22 degree Celsius and pH 5.46; assay type: ADME
[10] = pKa value of compound was determined; assay type: physicochemical
[11] = Apparent first-order rate constant for bromide ion release at 37 degree Celsius and pH 7.3; assay type: ADME
[12] = Half-life of compound at 22 degree Celsius and pH 6.25 was determined; assay type: ADME
[13] = Rate of cyclization of compound at 22 degree Celsius and pH 7.29; assay type: ADME
[14] = Rate of cyclization of compound at 22 degree Celsius and pH 4.24; assay type: ADME
[15] = Rate of hydrolysis of compound at pH 7.3 and 22 degree Centigrade; assay type: ADME; settings: buffer
[16] = Rate of cyclization, as measured by rate of formation of compound at 37 degree Centigrade; assay type: ADME
[17] = Rate of hydrolysis of compound at pH 7.3 and 37 degree Centigrade; assay type: ADME; settings: buffer
[18] = Rate of cyclization, as measured by rate of formation of compound at 22 degree Centigrade; assay type: ADME

Row | Structure (SMILES) | half-life [1] [min] | half-life [2] [min] | k1 [3] [min⁻¹] | Molar ratio [4] | half-life [5] [min] | k0 [6] [min⁻¹] | half-life [7] [min] | k1 [8] [min⁻¹] | k1 [9] [min⁻¹] | pKa [10] | Rate constant [11] [min⁻¹] | half-life [12] [min] | k1 [13] [min⁻¹] | k1 [14] [min⁻¹] | k2 [15] [min⁻¹] | k1 [16] [min⁻¹] | k2 [17] [min⁻¹] | k1 [18] [min⁻¹]
1 | CN(CC#CCN1CCCC1=O)CCBr | 4.9 | 4.6 | 0.1146 | 12.3 | 261 | 0.146 | 10.2 | 0.1512 | 0.0678 | 5.6 | 0.85 | 6.1 | 0.1406 | 0.00266 | – | – | – | –
2 | C[N+]1(CC#CCN2CCCC2=O)CC1.[Br-] | – | – | – | – | – | – | – | – | – | – | – | – | – | – | 0.00829 | 0.845 | 0.0395 | 0.145
